We go through 13 compounds from ChEMBL document CHEMBL1148101, “Structure/activity relationship of some natural monoterpenes as acaricides against Psoroptes cuniculi” (1995).

Common to all, as to assay type: functional
In test [1] the test system is Psoroptes ovis. The test is described as follows: Acaricidal activity against Psoroptes cuniculi at 1 uL after 24 hrs by inhalation assay.
Test [2] concerns Psoroptes ovis. The test is described as follows: Acaricidal activity against Psoroptes cuniculi at 0.125% dilution in physiological saline after 48 hrs by direct contact assay.
Test [3] relates to Psoroptes ovis. The test is described as follows: Acaricidal activity against Psoroptes cuniculi at 0.25% dilution in physiological saline after 48 hrs by direct contact assay.
In test [4] the test system is Psoroptes ovis. Put plainly: Acaricidal activity against Psoroptes cuniculi at 1% dilution in physiological saline after 48 hrs by direct contact assay.
The subject of test [5] is Psoroptes ovis. The test is described as follows: Acaricidal activity against Psoroptes cuniculi at 3 uL after 24 hrs by inhalation assay.
Test [6] deals with Psoroptes ovis. The test is described as follows: Acaricidal activity against Psoroptes cuniculi at 6 uL after 24 hrs by inhalation assay.
The subject of test [7] is Psoroptes ovis. Put plainly: Acaricidal activity against Psoroptes cuniculi at 18 uL after 24 hrs by inhalation assay.
For test [8], the system named is Psoroptes ovis. The test is described as follows: Acaricidal activity against Psoroptes cuniculi at 36 uL after 24 hrs by inhalation assay.

Turning to `CC1=CC[C@@H](C(C)(C)O)CC1` [ALPHA-TERPINEOL], the Activity is on record as 73.3% in test [1]; 100% in test [2]; 100% in test [3]; 100% in test [4]; 98.3% in test [5]; 98.3% in test [6].

As for `C=C(C)[C@H]1CC=C(C)CC1` [D-LIMONENE], the Activity in test [1], in test [2], in test [3], in test [4], in test [5] and in test [6] was 0% each time.

For the compound `C=CCc1ccc(OC)cc1` [ESTRAGOLE], the Activity in test [1] is on record as 0%; in test [2] it was 0%; in test [3], 63.3%; in test [4], 100%; in test [5] it was 6.7%; in test [6] it was 5%.

For the compound `C=CCc1ccc(O)c(OC)c1` [EUGENOL], the Activity in test [1] stood at 86.7%; in test [2], 100%; in test [3] it was 100%; in test [4], 100%; in test [5] it was 96.7%; in test [6], 100%.

Regarding `CC1=CCC(C(C)C)=CC1` [GAMMA-TERPINENE], the Activity in test [1], in test [2], in test [3], in test [4], in test [5] and in test [6] was 0% each time.

As for `CC(C)=CCC/C(C)=C/CO` [GERANIOL], the Activity in test [1] amounted to 95%; in test [2], 100%; in test [3], 100%; in test [4] it was 100%; in test [5] it was 93.3%; in test [6], 96.7%.

For `C=CC(C)(O)CCC=C(C)C` (stereo not drawn) [LINALOOL], the Activity was determined as 36.7% in test [1]; 97% in test [2]; 100% in test [3]; 100% in test [4]; 75% in test [5]; 100% in test [6].

As to `C=CC(C)(CCC=C(C)C)OC(C)=O` (stereo not drawn) [LINALYL ACETATE], the Activity in test [1] is recorded as 0%; in test [2], 5%; in test [3], 35%; in test [4], 40%; in test [5] it was 13.3%; in test [6], 20%.

`CC1CCC(C(C)C)C(O)C1` (stereo not drawn) [MENTHOL]: the Activity in test [7], in test [2], in test [8], in test [3], in test [4] and in test [6] was 100% each time.

As for `C=CC(=C)CCC=C(C)C` [MYRCENE], the Activity was 0% in test [1]; 0% in test [2]; 0% in test [3]; 0% in test [4]; 5.2% in test [5]; 6.7% in test [6].

As for `CC(C)=CCC/C(C)=C\CO` [NEROL], the Activity in test [1] amounted to 36.7%; in test [2], 100%; in test [3], 98.3%; in test [4], 100%; in test [5], 83.3%; in test [6], 100%.

As for `CC1=CCC(O)(C(C)C)CC1` (stereo not drawn) [TERPINEOL], the Activity in test [1] came out at 5%; in test [2], 100%; in test [3] it was 100%; in test [4], 100%; in test [5], 41.7%; in test [6] it was 100%.

Take `Cc1ccc(C(C)C)c(O)c1` [THYMOL]: the Activity in test [7], in test [2], in test [8], in test [3], in test [4] and in test [6] was 100% throughout.
